The source made the active and inactive calls.
Tests used:
[1] = target: Cytochrome P450 2C9 (Homo sapiens, UniProt P11712); conditions: Potency
[2] = target: Acyl-homoserine lactone acylase PvdQ (Pseudomonas aeruginosa (strain LESB58), UniProt Q9I194); test: PvdQ acylase enzyme activity blockers – biochemical, fluorescence, plate reader and imaging, cherry-picks, dose response (AID 493231)
[3] = target: T1, Aspartyl aminopeptidase (Plasmodium falciparum 3D7, UniProt Q8I2J3)
T1 sequence (Q8I2J3 whole entry): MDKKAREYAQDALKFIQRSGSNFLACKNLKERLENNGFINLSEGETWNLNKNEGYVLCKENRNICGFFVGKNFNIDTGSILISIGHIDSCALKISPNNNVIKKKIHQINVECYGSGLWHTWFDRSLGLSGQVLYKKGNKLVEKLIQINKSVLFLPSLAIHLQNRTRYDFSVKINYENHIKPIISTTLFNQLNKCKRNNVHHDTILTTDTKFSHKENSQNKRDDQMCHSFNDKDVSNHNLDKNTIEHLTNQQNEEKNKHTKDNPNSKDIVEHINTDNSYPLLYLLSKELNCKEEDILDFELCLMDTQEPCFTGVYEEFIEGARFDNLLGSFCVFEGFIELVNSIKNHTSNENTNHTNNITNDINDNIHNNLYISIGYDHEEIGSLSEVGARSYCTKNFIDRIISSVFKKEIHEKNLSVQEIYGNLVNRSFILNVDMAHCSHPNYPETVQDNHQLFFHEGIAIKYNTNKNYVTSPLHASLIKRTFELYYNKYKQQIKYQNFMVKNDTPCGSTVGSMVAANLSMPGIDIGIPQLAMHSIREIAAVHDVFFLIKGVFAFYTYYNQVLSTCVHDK

[4] = target: Procathepsin L (Homo sapiens, UniProt P07711)
Chain of Procathepsin L (P07711 whole entry): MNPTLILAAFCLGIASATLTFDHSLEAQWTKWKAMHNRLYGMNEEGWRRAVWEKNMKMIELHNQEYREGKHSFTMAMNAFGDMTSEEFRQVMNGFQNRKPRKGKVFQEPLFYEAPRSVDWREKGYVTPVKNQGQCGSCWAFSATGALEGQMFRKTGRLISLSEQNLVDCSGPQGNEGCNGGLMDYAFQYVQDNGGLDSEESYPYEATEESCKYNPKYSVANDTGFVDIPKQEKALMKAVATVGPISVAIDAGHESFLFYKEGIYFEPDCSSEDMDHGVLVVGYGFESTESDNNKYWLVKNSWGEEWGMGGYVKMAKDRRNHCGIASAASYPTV

[5] = target: Lysosomal acid glucosylceramidase (Homo sapiens, UniProt P04062); test: Dose response cell-based high throughput screening assay to identify enhancers of beta-glucosidase activity. [Related pubchem assays: 784 ]; format: functional
Chain of Lysosomal acid glucosylceramidase (P04062 whole entry): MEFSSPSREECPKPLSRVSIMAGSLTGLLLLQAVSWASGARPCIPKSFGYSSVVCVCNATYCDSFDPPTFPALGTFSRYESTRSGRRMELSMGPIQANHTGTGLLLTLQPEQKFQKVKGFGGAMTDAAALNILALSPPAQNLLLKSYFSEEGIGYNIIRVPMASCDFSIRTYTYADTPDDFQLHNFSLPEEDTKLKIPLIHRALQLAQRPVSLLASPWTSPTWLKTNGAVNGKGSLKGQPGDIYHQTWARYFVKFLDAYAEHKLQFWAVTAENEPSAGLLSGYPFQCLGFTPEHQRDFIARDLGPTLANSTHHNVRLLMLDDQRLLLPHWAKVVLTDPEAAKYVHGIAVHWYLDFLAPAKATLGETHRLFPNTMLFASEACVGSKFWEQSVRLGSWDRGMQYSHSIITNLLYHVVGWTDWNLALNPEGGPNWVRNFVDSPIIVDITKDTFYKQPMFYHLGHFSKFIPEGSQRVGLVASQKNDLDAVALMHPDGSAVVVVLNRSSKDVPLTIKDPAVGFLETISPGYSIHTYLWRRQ

[6] = alpha-synuclein stem-loop translation blockers – luminescence, H4 neuroglioblastoma cells, dose confirmation, confirmation (AID 2454); format: functional, cell-based;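 further: H4 neuroglioblastoma cells carrying an alpha-synuclein 5'UTR luciferase reporter; potency for inhibition of the luciferase signal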
[7] = cells; format: functional, cell-based
[8] = Luminescence Cell-Based Dose Response HTS to Identify Inhibitors of 5'UTR Stem-Loop Driven Prion Protein mRNA Translation in H4 Neuroglioblastoma Cells. [Related pubchem assays: 1827 (Project Summary), 1813 (Primary HTS)]; format: functional
[9] = target: Paired box protein Pax-8 (Homo sapiens, UniProt Q06710); test: PAX8 transcriptional activity inhibition in RMG-I – RMG-I cells, luciferase, cherry-pick, dose response (AID 687027); format: functional, cell-based;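 further: luciferase reporter driven by Pax8 target thyroperoxidase promoter measured by SteadyGlo luminescence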
Chain of Paired box protein Pax-8 (Q06710 whole entry): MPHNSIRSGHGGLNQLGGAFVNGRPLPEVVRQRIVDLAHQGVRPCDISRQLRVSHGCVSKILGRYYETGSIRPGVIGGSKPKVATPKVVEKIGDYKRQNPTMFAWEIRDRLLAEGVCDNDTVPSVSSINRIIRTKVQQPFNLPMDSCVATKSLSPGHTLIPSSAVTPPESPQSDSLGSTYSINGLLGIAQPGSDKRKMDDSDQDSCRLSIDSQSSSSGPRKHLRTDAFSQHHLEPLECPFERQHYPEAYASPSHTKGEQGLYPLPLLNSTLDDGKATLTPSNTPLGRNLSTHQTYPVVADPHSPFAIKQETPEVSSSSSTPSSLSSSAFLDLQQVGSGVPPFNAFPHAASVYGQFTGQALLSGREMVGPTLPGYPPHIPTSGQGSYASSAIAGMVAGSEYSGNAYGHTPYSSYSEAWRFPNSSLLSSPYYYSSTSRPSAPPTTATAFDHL

[10] = target: T2, Nuclear receptor subfamily 0 group B member 1 (Homo sapiens, UniProt P51843); format: functional, cell-based;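 further: HEK293T cells transfected with SF-1 and DAX-1 plus StAR promoter luciferase reporter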
T2 sequence (P51843 whole entry): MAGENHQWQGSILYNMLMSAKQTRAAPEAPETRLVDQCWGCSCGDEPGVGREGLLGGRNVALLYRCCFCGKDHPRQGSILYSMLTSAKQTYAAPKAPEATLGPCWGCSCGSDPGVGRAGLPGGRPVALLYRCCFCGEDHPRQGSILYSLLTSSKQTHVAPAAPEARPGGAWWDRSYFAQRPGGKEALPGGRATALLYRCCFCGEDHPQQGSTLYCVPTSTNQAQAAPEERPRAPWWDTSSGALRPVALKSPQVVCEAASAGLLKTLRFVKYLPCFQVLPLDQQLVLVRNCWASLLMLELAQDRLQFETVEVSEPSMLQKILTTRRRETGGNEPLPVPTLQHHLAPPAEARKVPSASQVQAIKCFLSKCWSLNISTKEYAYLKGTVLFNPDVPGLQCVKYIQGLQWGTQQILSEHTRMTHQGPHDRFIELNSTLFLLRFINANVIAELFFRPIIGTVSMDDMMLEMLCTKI

[11] = cells; format: functional, cell-based; remark: listed apart in the source
[12] = alpha-synuclein stem-loop luciferase translation blockers – H4 neuroglioma cells, luminescence, confirmation (AID 1988); format: functional, cell-based
[13] = luciferase reporter signal reduction – luminescence, H4-C neuroglioblastoma cells, dose response (AID 2458); format: functional, cell-based;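 further: H4 neuroglioblastoma cells stably carrying a luciferase reporter gene fusion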
[14] = luciferase reporter signal suppression in cells – H4 neuroglioma cells, luminescence, dose response (AID 1990); format: functional, cell-based
[15] = target: Melanin-concentrating hormone receptor 1 (Homo sapiens, UniProt Q99705); test: Fluorescence-based counterscreen for antagonists of the G-protein coupled receptor 7 (GPR7): cell-based high throughput dose response assay to identify antagonists of the melanin-concentrating hormone receptor 1 (MCHR1).; format: functional
Chain of Melanin-concentrating hormone receptor 1 (Q99705 whole entry): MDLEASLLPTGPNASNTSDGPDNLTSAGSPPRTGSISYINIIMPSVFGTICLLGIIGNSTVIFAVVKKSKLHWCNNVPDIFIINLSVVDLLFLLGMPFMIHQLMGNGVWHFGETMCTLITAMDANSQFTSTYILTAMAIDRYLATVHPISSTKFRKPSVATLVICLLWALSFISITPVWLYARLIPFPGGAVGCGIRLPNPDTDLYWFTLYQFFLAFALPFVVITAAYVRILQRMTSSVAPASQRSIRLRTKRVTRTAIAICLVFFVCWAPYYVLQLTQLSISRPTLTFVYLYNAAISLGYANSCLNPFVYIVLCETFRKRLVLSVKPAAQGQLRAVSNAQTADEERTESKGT

[16] = target: T3, Short transient receptor potential channel 4 (Mus musculus, UniProt Q9QUQ5); test: block of DAMGO-driven TRPC4 calcium entry – cell-based, HEK293 TRPC4/mu-opioid, Fluo-4 calcium, dose response (AID 434942); format: functional;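 further: potency of inhibitors blocking the TRPC4 calcium response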
T3 sequence (Q9QUQ5 whole entry): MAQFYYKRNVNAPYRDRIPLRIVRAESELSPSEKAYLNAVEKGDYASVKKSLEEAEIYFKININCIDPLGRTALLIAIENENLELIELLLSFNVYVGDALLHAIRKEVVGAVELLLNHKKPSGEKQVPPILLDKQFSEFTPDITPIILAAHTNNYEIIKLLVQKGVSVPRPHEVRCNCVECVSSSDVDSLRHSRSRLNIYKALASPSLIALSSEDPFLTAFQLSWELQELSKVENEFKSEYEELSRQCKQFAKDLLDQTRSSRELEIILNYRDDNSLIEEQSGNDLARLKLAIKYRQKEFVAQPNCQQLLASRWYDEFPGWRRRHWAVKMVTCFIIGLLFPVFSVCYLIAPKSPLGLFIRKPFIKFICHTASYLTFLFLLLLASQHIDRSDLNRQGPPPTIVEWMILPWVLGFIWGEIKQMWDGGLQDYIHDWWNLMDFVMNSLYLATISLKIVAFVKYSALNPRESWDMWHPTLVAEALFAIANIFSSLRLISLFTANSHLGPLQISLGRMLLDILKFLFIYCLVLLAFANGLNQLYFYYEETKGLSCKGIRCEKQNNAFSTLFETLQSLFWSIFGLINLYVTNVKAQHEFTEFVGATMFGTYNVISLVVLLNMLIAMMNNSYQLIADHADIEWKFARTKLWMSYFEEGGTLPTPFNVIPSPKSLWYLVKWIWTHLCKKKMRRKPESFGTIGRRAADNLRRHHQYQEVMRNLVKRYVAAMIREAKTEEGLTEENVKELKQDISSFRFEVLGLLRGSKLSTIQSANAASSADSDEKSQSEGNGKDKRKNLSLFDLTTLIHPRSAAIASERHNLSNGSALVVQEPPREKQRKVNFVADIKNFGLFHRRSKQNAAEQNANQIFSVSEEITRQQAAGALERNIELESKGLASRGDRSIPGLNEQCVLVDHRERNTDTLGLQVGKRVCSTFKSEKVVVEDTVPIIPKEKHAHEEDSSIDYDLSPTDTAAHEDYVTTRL

[17] = target: Cytochrome P450 2C19 (Homo sapiens, UniProt P33261); test: qHTS Assay for Inhibitors and Substrates of Cytochrome P450 2C19. [Related pubchem assays: 410 ]; format: ADME; conditions: read-out: Potency
Chain of Cytochrome P450 2C19 (P33261 whole entry): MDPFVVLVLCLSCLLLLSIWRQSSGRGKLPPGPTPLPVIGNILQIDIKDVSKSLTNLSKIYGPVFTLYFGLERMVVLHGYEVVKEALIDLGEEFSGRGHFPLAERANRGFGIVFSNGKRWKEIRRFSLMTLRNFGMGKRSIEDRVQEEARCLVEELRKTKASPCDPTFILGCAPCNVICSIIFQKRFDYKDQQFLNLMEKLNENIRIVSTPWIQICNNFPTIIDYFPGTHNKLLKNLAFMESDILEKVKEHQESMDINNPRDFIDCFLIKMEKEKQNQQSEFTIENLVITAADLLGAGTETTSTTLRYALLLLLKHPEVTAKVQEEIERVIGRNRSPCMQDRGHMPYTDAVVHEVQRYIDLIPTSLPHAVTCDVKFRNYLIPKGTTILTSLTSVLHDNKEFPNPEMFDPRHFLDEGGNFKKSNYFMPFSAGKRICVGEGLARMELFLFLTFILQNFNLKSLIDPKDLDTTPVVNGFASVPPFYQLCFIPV

[18] = target: T4, Low molecular weight phosphotyrosine protein phosphatase (Homo sapiens, UniProt P24666); format: functional; conditions: read-out: IC50_Mean;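 further: Dose-response confirmation assay measuring inhibition of LMPTP enzyme activity by fluorescence intensity read-out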
T4 sequence (P24666 whole entry): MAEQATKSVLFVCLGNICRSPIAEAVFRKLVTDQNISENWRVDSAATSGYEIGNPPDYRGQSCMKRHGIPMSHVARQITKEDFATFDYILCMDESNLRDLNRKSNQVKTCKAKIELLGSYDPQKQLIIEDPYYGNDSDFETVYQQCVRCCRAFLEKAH

[19] = target: Neurotensin receptor type 1 (Homo sapiens, UniProt P30989); format: functional;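 further: Image-based confirmatory dose-response assay measuring agonist activity at NTR1; NTR1-expressing U2OS osteosarcoma cells imaged for beta-arrestin GFP spot formation; agonist potency where compounds increase beta-arrestin recruitment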
Chain of Neurotensin receptor type 1 (P30989 whole entry): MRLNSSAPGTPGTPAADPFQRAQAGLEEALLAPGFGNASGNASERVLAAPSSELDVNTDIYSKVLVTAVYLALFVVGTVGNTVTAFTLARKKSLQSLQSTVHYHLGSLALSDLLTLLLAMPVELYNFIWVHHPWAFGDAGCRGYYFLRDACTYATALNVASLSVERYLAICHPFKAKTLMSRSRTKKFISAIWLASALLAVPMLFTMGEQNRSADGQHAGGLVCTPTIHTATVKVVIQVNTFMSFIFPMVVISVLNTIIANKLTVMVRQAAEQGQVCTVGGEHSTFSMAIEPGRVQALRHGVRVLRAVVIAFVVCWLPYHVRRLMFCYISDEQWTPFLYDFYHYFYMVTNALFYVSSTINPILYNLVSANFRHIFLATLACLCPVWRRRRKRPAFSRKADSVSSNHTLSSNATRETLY

[20] = target: Large T antigen (Simian virus 40, UniProt P03070); format: functional, Betapolyomavirus macacae;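 further: Confirmatory-stage PubChem screen for compounds that inhibit SV40 T antigen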
Chain of Large T antigen (P03070 whole entry): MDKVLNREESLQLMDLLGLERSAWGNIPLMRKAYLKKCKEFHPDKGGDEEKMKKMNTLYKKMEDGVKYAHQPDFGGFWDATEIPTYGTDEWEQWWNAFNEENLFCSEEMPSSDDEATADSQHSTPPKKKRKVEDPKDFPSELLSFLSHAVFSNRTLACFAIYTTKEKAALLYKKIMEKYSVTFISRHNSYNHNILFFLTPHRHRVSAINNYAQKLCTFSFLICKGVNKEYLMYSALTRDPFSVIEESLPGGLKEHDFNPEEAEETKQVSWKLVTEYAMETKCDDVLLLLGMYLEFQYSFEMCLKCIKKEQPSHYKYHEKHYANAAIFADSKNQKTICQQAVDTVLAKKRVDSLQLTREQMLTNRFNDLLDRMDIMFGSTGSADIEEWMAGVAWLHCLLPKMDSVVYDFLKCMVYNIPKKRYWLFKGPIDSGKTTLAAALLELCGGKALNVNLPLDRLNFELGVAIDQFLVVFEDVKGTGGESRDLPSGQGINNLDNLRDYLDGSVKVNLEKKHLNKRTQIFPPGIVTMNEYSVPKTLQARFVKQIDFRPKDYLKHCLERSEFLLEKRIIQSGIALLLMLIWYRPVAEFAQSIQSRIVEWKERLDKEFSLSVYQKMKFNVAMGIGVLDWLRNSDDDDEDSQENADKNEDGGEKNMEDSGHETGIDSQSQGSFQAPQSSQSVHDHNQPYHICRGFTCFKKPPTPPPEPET

[21] = target: Hexokinase (Trypanosoma brucei, UniProt Q38C41); test: Confirmation assay for inhibitors of Trypanosoma brucei hexokinase 1-Analogue-first series. [Related pubchem assays (depositor defined):AID1430, AID1632, AID2516, AID2560, AID2579, AID2600, AID449725, AID492951]; format: functional
Chain of Hexokinase (Q38C41 whole entry): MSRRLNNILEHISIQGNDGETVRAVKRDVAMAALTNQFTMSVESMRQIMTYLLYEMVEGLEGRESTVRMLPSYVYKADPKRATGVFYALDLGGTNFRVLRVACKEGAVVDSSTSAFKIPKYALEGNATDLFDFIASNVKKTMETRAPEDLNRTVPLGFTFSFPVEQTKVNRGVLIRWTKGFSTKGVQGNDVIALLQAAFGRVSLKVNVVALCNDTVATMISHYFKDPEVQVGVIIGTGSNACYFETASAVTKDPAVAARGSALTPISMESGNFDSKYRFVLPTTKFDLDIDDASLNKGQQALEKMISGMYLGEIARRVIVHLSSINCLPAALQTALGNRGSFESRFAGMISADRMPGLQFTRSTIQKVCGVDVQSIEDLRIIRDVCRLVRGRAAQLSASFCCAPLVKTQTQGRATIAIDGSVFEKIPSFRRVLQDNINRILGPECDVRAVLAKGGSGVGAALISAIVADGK

[22] = Luminescence Cell-Based Dose Retest to Confirm Inhibitors of Cancer Stem Cells. [Related pubchem assays (depositor defined):AID2717, AID2721]; format: functional; conditions: Homo sapiens
[23] = target: T5, Microphthalmia-associated transcription factor (Homo sapiens, UniProt O75030); test: reducers of TRPM1 reporter luminescence, concentration series – cell-based, SK-MEL-5, cherry-picked, set 3, MITF inhibitor project, dose response (AID 493073); format: functional;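 further: SK-MEL-5 melanoma cells with luciferase driven by the MITF target TRPM1 promoter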
T5 sequence (O75030 whole entry): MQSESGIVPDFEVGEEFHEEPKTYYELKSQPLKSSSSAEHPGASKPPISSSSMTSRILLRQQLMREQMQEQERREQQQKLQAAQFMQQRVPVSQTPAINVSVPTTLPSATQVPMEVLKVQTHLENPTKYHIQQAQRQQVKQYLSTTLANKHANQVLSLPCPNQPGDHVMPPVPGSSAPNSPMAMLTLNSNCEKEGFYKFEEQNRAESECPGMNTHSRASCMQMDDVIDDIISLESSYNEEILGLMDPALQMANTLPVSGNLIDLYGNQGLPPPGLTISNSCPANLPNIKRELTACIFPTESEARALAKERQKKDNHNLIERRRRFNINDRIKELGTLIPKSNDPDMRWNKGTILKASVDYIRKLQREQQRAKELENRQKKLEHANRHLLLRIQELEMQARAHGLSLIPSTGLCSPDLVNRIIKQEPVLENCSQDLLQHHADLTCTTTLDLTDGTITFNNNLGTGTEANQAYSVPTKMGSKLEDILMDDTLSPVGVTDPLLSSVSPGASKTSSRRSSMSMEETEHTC

Chain of Acyl-homoserine lactone acylase PvdQ (Q9I194 24-193 limits assumed): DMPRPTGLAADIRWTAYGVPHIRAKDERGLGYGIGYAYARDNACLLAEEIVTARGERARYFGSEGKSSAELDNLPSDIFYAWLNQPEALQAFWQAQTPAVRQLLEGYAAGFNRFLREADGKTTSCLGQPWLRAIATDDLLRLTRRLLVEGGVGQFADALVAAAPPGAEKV
Chain of Acyl-homoserine lactone acylase PvdQ (Q9I194 217-762 limits assumed): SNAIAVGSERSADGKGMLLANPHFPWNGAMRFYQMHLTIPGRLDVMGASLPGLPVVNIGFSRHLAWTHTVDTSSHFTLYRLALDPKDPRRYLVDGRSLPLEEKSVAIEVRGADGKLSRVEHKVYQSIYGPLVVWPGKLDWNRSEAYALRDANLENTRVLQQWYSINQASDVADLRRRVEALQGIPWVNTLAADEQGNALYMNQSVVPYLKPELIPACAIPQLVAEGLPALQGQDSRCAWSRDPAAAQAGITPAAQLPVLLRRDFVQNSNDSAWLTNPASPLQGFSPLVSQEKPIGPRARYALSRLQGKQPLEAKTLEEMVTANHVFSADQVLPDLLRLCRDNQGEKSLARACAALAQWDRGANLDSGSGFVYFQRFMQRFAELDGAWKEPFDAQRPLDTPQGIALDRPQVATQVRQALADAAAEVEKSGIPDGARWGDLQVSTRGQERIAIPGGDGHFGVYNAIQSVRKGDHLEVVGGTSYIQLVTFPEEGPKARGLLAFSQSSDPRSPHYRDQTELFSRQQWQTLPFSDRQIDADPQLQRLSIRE
Chain of Cytochrome P450 2C9 (P11712 whole entry): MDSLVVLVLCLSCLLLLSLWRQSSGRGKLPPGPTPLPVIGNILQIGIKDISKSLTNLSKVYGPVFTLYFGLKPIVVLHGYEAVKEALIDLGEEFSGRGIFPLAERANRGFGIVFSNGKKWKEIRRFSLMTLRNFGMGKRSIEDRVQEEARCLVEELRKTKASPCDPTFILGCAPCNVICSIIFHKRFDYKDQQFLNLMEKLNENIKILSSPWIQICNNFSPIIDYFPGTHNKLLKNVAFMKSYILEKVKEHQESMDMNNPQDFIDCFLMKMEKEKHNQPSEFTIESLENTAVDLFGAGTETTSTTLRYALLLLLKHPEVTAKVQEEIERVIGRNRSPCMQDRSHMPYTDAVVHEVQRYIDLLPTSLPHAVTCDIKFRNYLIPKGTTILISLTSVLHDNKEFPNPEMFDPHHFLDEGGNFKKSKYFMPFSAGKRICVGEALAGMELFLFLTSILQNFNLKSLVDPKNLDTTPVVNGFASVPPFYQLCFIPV

CCOC(c1cc(OC)cc([N+](=O)[O-])c1OC)C(C)C(OC)[C@@H](C)/C=C/CC(=O)OC (some centres not stated)
AC50 [1]: 2.51 µM (inconclusive)

CC(C)Oc1ccc(CC2CCC(=O)N(C)C2=O)cc1 (configuration not stated)
AC50 [2]: 26.2 µM (active)

O=C(CSc1nn(-c2ccccc2)c(=S)s1)Nn1cnnc1
IC50 [3]: 1.61 µM (active) | IC50 [4]: > 59.6 µM (not active)

CCOc1ccccc1C1C(C(=O)Nc2ccccc2OC)=C(C)Nc2nnnn21 (configuration not stated)
EC50 [5]: > 10 µM (not active)

O=C(CSc1nnc[nH]1)Nc1nc(-c2ccccc2)ns1
IC50 [3]: 0.442 µM (active) | IC50 [4]: > 59.6 µM (not active)

COC(=O)CN1CCN(C(=O)c2ccc(F)cc2)c2ccccc2C1
EC50 [5]: > 50 µM (not active)

Cc1cc(C)c2nc(SCC(=O)N3CC(=O)Nc4ccccc43)c(C#N)cc2c1
EC50 [6]: > 12 µM (inconclusive) | IC50 [7]: > 67.5 µM (inactive) | EC50 [8]: 0.217 µM (active) | AC50 [9]: 1.25 µM (active) | IC50 [10]: > 67.5 µM (inactive) | EC50 [11]: > 12 µM (not active) | EC50 [12]: < 0.1 µM (active) | EC50 [13]: 0.665 µM (active) | EC50 [14]: 0.13 µM (active)

COc1ccccc1C1CC(c2ccc(Cl)cc2)N=C2N=CNN21 (configuration not stated)
IC50 [15]: 24.5 µM (not active)

CC(C)Cc1nc(N2CCOCC2)c(C#N)c2c1CCC2
EC50 [16]: 6.68 µM (active)

C=C(C)C(O)/C=C/c1ccc(OC)cc1 (configuration not stated)
AC50 [1]: 2.51 µM (inconclusive) | AC50 [17]: 0.501 µM (inconclusive)

COc1ccc(-c2csc(N3CCN(c4cc(C)nc5ccccc45)CC3)n2)cc1OC
IC50 [18]: 11.8 µM (active) | EC50 [19]: 21.4 µM (inactive)

Cc1cc(C(=O)N2CCC(Cc3ccccc3)CC2)ccc1[N+](=O)[O-]
IC50 [15]: 16.6 µM (not active)

COc1ccc(-c2ccc(OC(=O)NC3CCS(=O)(=O)C3)cc2)cc1 (configuration not stated)
IC50 [20]: 9.45 µM (active) | AC50 [2]: 30.7 µM (active)

O=C(Nc1cc(Cl)ccc1C(=O)O)c1ccccc1
IC50 [21]: > 25 µM (inactive)

O=c1c2cc(F)ccc2sn1-c1ccc(Cl)cc1
IC50 [21]: 3.01 µM (active)

O=C(/C=C\c1ccccc1)NCC(=O)N/N=C/c1ccc(O)cc1O
AC50 [22]: 11.1 µM (active) | EC50 [19]: 23.1 µM (inactive) | AC50 [23]: 7.99 µM (active)

CCOc1ccc(Br)cc1/C=N/O
EC50 [16]: 5.96 µM (active)

Reference: ChEMBL document CHEMBL1201862, “PubChem BioAssay data set” (2004)
